Laboratory results: patent publication US6056941A, “Kit for the preparation of technetium TC 99m teboroxime myocardial perfusion agent” (priority 1999, dated 2000)

Experiment: Clearance following intravenous administration in normal subjects (heart and liver)
Type: in vivo, human
From the text: Table II approximates the effective clearance of Technetium Tc-99 m Teboroxime from the heart and liver.

C[B-](ON=C1CCCCC1=N[O-])(ON=C1CCCCC1=NO)ON=C1CCCCC1=NO.[99Tc+3].[Cl-] [Technetium Tc-99 m Teboroxime, ^99m Tc (chlorine) (1,2-cyclohexanedione dioxime)3 methyl boron]
clearance from the circulation: rapidly cleared from the circulation | time of peak heart uptake (heart): ≤ 2 min | effective clearance, Heart (heart, 5 min): 2.3% | effective clearance, Heart (heart, 10 min): 1.7% | effective clearance, Heart (heart, 15 min): 1.5% | effective clearance, Heart (heart, 20 min): 1.3% | effective clearance, Heart (heart, 1 hr): 1.1% | effective clearance, Heart (heart, 2 hr): 0.8% | effective clearance, Heart (heart, 4 hr): 0.6% | effective clearance, Liver (5 min): 23% | effective clearance, Liver (10 min): 33% | effective clearance, Liver (15 min): 32% | effective clearance, Liver (20 min): 27% | effective clearance, Liver (1 hr): 24% | effective clearance, Liver (2 hr): 18% | effective clearance, Liver (4 hr): 17%
